Assay results published in patent US12559863B2, “Macrocyclic modulators of disease associated protein misfolding and aggregation” (RESQ BIOTECH, priority 2017, dated 2026).
Where a SMILES comes first, the peptide text is derived from it.

Assays:
[1] = target: T1, Aβ40 (Homo sapiens, UniProt P05067); experiment: Thioflavin T dye-binding assay of Aβ40; format: biochemical; conditions: 30-d aged CD solutions
T1 construct: The main product of APP cleavage consists of 40 amino acids (Aβ40); purchased Eurogentec, Belgium; host or cells: chemical synthesis
Experimental: For Aβ ThT staining, 100 μL of the 30-d aged 50 μM CD solutions were diluted in PBS (10 mM, pH 7.33) to form a 25 μM Aβ solution with 200 μL final volume. 2.5 μL from a stock solution of ThT (Sigma-Aldrich, USA) in PBS (10 mM, pH 7.33) was added to the prepared Aβ solutions to achieve a final ThT concentration of 5 μM. The mixture was agitated adequately by pipetting and immediately thereafter, fluorescence was monitored with excitation at 440 nm (EM slit=2.5 nm, PMT Voltage 700 V, response 0.4 s) using a HITACHI F-2500 (Japan) spectrofluorometer.

[2] = tested on: primary mouse hippocampal neurons; experiment: MTT cell viability in primary hippocampal neurons; format: cell-based; conditions: for neurotoxicity of Aβ40: 1 μM Aβ40, 1:1 and 2:1 peptides:Aβ; for neurotoxicity of Aβ40 / neurotoxicity of Aβ42: 24 h, MTT; for neurotoxicity of Aβ42: 1 μM Aβ42, 1:1 and 2:1 peptides:Aβ; for growth-promoting effects or cytotoxicity of peptide on its own: peptide alone, no Aβ
Experimental: The media/agents for primary neuronal cell cultures were purchased from Thermo Fisher Scientific (USA). Hippocampal neuronal cultures were obtained from postnatal day 1 female pups of C57BL/6 mice. Briefly, after being dissected, the hippocampus was incubated with 0.25% trypsin for 15 min at 37° C. The hippocampi were then rinsed in 10 mL of Hibernate containing 10% (v/v) heat-inactivated fetal bovine serum (FBS). Cultures were maintained in Neurobasal-A medium containing 2% B-27 supplement, 0.5 mM Gluta-MAX and 1% penicillin/streptomycin at 37° C. and 5% CO2. Half of the medium was replaced twice a week. Neuronal hippocampal cells were plated at a density of approximately 2×10^4 per well in 96-well plates and 5×10^5 per well in 24-well plates for MTT and induced cell death assays, respectively. After seven days of incubation in culture well plates, the primary hippocampal neurons were used for the cell viability measurements.
(§1) Solutions of synthetic Aβ40 or Aβ42 (10 μM) in PBS, preincubated at 37° C. (3 d for Aβ40 solutions and 1 d for Aβ42 solutions) in the presence or absence of synthetic cyclic peptides (1:1 and 2:1 ratio of peptides:Aβ), were diluted with fresh medium and transferred into wells at a 1 μM final Aβ concentration. Cell viability was determined using the MTT assay. MTT (3-[4,5-dimethylthiazol-2-yl]-2,5-diphenyl tetrazolium bromide) was purchased from Applichem (Germany). After 24 h of exposure to Aβ solutions, 100 μL of a 0.5 mg/mL stock solution of MTT in Neurobasal-A was added to each well of primary hippocampal neurons followed by a 3 h incubation at 37° C., while 100 μL of a 1 mg/mL stock solution of MTT in DMEM complete medium was added to each well of U87MG cells followed by a 4 h incubation at 37° C. The medium was then removed and the cells were diluted in DMSO. The relative formazan concentration was measured by determination of the absorbance at 540 nm using a plate reader (Tecan, Austria). Results were expressed as the percentage of MTT reduction, assuming that the absorbance of control (untreated) cells was 100%, and represent the mean of three independent experiments with six replicate wells for each condition. Induced cell death was also qualitatively examined by phase-contrast microscopy (Carl Zeiss, Axiovert 25 CFL, Germany) using the above solutions. In each run, the effect of solutions of plain synthetic peptides and plain Aβ40 or Aβ42 was independently checked to serve as internal control.

[3] = tested on: glioblastoma cell line U87MG; format: cell-based, human; conditions: for Aβ-induced toxicity in U87MG: MTT
Experimental: The utilized U87MG cells (human glioblastoma-astrocytoma, epithelial-like cell line) were kind a gift from Dr. Maria Paravatou-Petsotas, Radiobiology Laboratory, Institute of Nuclear & Radiological Sciences & Technology, Energy & Safety, NCSR “Demokritos”. The utilized media/agents for U87MG cell cultures were obtained from Biochrom AG (Germany) and PAA Laboratories (USA). U87MG cells were grown in Dulbecco's modified Eagle medium (DMEM), supplemented with 10% fetal bovine serum (FBS), 2.5 mM L-glutamine, 1% penicillin/streptomycin at 37° C. and 5% CO2. For MTT cytotoxicity studies, cells were plated at a density of 2×10^4 cells per well in 96-well plates and incubated at 37° C. for 24 h to allow cells to attach. The medium was subsequently removed and cells were rendered quiescent by incubation in serum-free medium for 24 h. For cell viability measurements cells were subsequently treated with the indicated concentrations of Aβ in the presence or absence of synthetic peptides, as described in Materials and Methods.
as §1

[4] = tested on: C. elegans strain CL4176 (human Aβ42); experiment: Dot blot analysis of total and oligomeric Aβ in C. elegans CL4176; format: in vivo, Caenorhabditis elegans; conditions: for accumulation level of total Aβ, CL4176: antibody 6E10; for accumulation level of oligomeric Aβ, CL4176: antibody AB9234
Experimental: CL4176 animals were allowed to lay eggs for 3 h on NGM plates containing either synthetic peptides or 0.26% DMSO. Paralysis was induced upon temperature up-shift and the progeny were exposed to either pure peptides or 0.26% DMSO until 50% of the control population was paralyzed. The animals were then collected and boiled in non-reducing Laemmli buffer. For dot blot analysis, 1-5 μg of protein lysates were spotted onto 0.2 μm nitrocellulose membranes (Bio-Rad, USA) after soaking into TBS pre-heated at 80° C. Immunoblotting was performed using the anti-Aβ antibody 6E10 (recognizes total Aβ) and the anti-amyloid protein, oligomer-specific antibody AB9234 (Merck Millipore, Germany). Actin was used as a loading control. Blots were developed with chemiluminescence by using the Clarity™ Western ECL substrate (Bio-Rad, USA). Quantification of the ratio of each detected protein to actin using the anti-actin antibody sc-1615 (Santa Cruz, Germany), and normalization to control appears next to each representative blot.

[5] = target: T1, Aβ40; experiment: Circular dichroism of Aβ40 with cyclic peptide; format: biochemical; conditions: 50 μM Aβ, 33° C., 30 d
Experimental: Synthetic Aβ40 and Aβ42 peptides were gently dissolved without vortexing in doubly deionized water to a final concentration of 100 μM. These solutions were then diluted by PBS addition (10 mM, pH 7.33) to achieve a final Aβ concentration of 50 μM.
Appropriate amounts of synthetic cyclic peptides were added to either 40 μM SOD1(A4V) or 50 μM Aβ solutions at the desired cyclic peptide:target protein molar ratio. SOD1(A4V) structural changes were monitored for 90 d at 25° C., under quiescent conditions. Aβ structural changes were monitored for 30 d at 33° C. under quiescent conditions. CD spectra in the range 190-260 nm were recorded on a JASCO J-715 spectropolarimeter (Jasco Co., Japan) using quartz cuvettes with 1 mm path length. Each reported spectrum is the average of three scans at a rate of 100 nm·min^−1 and a resolution of 0.5 nm.

Row | Compound | Aβ40 fibril formation (ThT) [1] | neurotoxicity of Aβ40 [2] | neurotoxicity of Aβ42 [2] | growth-promoting effects or cytotoxicity of peptide on its own [2] | growth-promoting effects or cytotoxicity of peptide on its own [3] | Aβ-induced toxicity in U87MG [3] | accumulation level of total Aβ, CL4176 [4] | accumulation level of oligomeric Aβ, CL4176 [4] | effect on aggregation process of Aβ40 (CD) [5]
1 | C[C@@H]1NC(=O)[C@H](CO)NC(=O)[C@H]([C@@H](C)O)NC(=O)[C@@H]2CCCN2C(=O)[C@H](CO)NC1=O [AβC5-34, cyclo-SASPT] (cyclo(ASPTS)) | almost unaffected | markedly inhibit the neurotoxicity | markedly inhibit the neurotoxicity | did not exhibit general growth-promoting effects or considerable cytotoxicity | did not exhibit general growth-promoting effects or considerable cytotoxicity | toxicity-suppressing effects | significant reduction of both Aβ species | significant reduction of both Aβ species | did not have the same effect and resulted in the appearance of a low-intensity negative peak
2 | cyclo-TWSVW (cyclic) [SOD1C5-4] | did not have any effect |  |  |  |  |  |  |  | did not have any effect
3 | C[C@@H]1NC(=O)[C@H]([C@@H](C)O)NC(=O)[C@H](CCCNC(=N)N)NC(=O)[C@H](CC(=O)O)NC(=O)[C@H](Cc2ccccc2)NC1=O [AβC5-116, cyclo-TAFDR] (cyclo(AFDRT)) | reduced | markedly inhibit the neurotoxicity | markedly inhibit the neurotoxicity | did not exhibit general growth-promoting effects or considerable cytotoxicity | did not exhibit general growth-promoting effects or considerable cytotoxicity | toxicity-suppressing effects | significant reduction of both Aβ species | significant reduction of both Aβ species | strongly inhibit the aggregation of Aβ40
